Source: ChEMBL document CHEMBL4177524, “Discovery of hepatitis B virus capsid assembly inhibitors leading to a heteroaryldihydropyrimidine based clinical candidate (GLS4)” (Bioorg Med Chem, 2017)

Tests used:
[1] = Cytotoxicity in human HepG2.215 cells assessed as reduction in cell viability after 5 days by CCK8 assay; type: cell-based, HepG2 2.2.15; conditions: HepG2.2.15 cells
Hepatitis B virus [2] = assay: Antiviral activity against lamivudine-resistant wild type hepatitis B virus infected in human Huh7 cells assessed as reduction in intracellular DNA levels measured on day 7 by real-time PCR analysis; type: functional, organism-based; conditions: Huh-7, 168 h
Hepatitis B virus [3] = assay: Antiviral activity against lamivudine-resistant hepatitis B virus harboring reverse transcriptase M204I/V173L double mutant infected in human Huh7 cells assessed as reduction in intracellular DNA levels measured on day 7 by real-time PCR analysis; type: functional, organism-based; conditions: Huh-7, 168 h
Hepatitis B virus [4] = assay: Antiviral activity against lamivudine-resistant hepatitis B virus harboring reverse transcriptase M204I mutant infected in human Huh7 cells assessed as reduction in secreted DNA levels measured on day 7 by real-time PCR analysis; type: functional, organism-based; conditions: Huh-7, 168 h
Hepatitis B virus [5] = assay: Antiviral activity against lamivudine-resistant hepatitis B virus harboring reverse transcriptase M204I/V173L double mutant infected in human Huh7 cells assessed as reduction in secreted DNA levels measured on day 7 by real-time PCR analysis; type: functional, organism-based; conditions: Huh-7, 168 h
Hepatitis B virus [6] = assay: Antiviral activity against lamivudine-resistant hepatitis B virus harboring reverse transcriptase M204I mutant infected in human Huh7 cells assessed as reduction in intracellular DNA levels measured on day 7 by real-time PCR analysis; type: functional, organism-based; conditions: Huh-7, 168 h
Hepatitis B virus [7] = assay: Antiviral activity against lamivudine-resistant wild type hepatitis B virus infected in human Huh7 cells assessed as reduction in secreted DNA levels measured on day 7 by real-time PCR analysis; type: functional, organism-based; conditions: Huh-7, 168 h
Hepatitis B virus [8] = assay: Antiviral activity against hepatitis B virus infected in human HepG2.215 cells assessed as reduction in viral DNA replication measured on day 7 by real time PCR analysis; type: functional, organism-based; conditions: HepG2.2.15, 168 h
[9] = molecular target: Core antigen (Hepatitis B virus) (UniProt Q03732); assay: Inhibition of hepatitis B virus capsid assembly infected in human HepG2.215 cells assessed as reduction in viral DNA replication measured on day 7 by real time PCR analysis; type: cell-based
Core antigen (Hepatitis B virus), sequence (Q03732 as listed by the source): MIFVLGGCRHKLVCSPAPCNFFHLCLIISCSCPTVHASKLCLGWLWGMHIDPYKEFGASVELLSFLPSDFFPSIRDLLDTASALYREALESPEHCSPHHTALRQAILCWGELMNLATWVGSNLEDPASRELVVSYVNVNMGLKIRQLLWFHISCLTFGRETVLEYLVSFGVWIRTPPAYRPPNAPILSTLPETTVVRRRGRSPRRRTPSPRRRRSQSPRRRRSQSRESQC

Nc1ccn([C@@H]2CS[C@H](CO)O2)c(=O)n1 [LAMIVUDINE]
CC50 at 120 h [1]: 1020 µM
EC50 (Hepatitis B virus [2]): 0.237 µM
EC50 (Hepatitis B virus [3]): > 20 µM
EC50 (Hepatitis B virus [4]): > 20 µM
EC50 (Hepatitis B virus [5]): > 20 µM
EC50 (Hepatitis B virus [6]): > 20 µM
EC50 (Hepatitis B virus [7]): 0.055 µM
EC50 (Hepatitis B virus [8]): 0.1 µM
EC90 (Hepatitis B virus [8]): 2 µM

COC(=O)C1=C(C)NC(c2nccs2)=N[C@H]1c1ccc(F)cc1Cl
CC50 at 120 h [1]: > 45 µM
EC90 [9]: 0.3 µM
